Data reported in ChEMBL document CHEMBL1201862, “PubChem BioAssay data set” (2004).
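Cultured in 96-well plates, cells were exposed to test compound for 48 hours across five concentrations. The concentration for 50% growth inhibition is given as GI50.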 Activity calls are given as the source filed them. Rule as the data show it: active = GI50 up to about 1.1 µM and inactive = higher.

How the values were obtained:
Assay in all cases: NCI anticancer screen, dose series, 48 h
A498 = test system: A498
ACHN = test system: ACHN
BT-549 = test system: BT-549
COLO 205 = test system: COLO 205
DU-145 = test system: DU-145
EKVX = test system: EKVX
HCT-116 = test system: HCT-116
IGROV-1 = test system: IGROV-1
K562 = test system: K562
M14 = test system: M14
MDA-MB-435 = test system: MDA-MB-435
MDA-N = test system: MDA-N
MOLT-4 = test system: MOLT-4
Malme-3M = test system: Malme-3M
NCI-H226 = test system: NCI-H226
NCI-H23 = test system: NCI-H23
NCI-H522 = test system: NCI-H522
OVCAR-3 = test system: OVCAR-3
OVCAR-5 = test system: OVCAR-5
PC-3 = test system: PC-3
RXF 393 = test system: RXF 393
SK-MEL-2 = test system: SK-MEL-2
SK-MEL-5 = test system: SK-MEL-5
SK-OV-3 = test system: SK-OV-3
T47D = test system: T47D
UACC-257 = test system: UACC-257
UO-31 = test system: UO-31
786-0 = test system: 786-0
A549 = test system: A549
CAKI-1 = test system: CAKI-1
CCRF-CEM = test system: CCRF-CEM
HCC 2998 = test system: HCC 2998
HCT-15 = test system: HCT-15
HL-60 = test system: HL-60
HOP-62 = test system: HOP-62
HT-29 = test system: HT-29
MCF7 = test system: MCF7
NCI-H460 = test system: NCI-H460
NCI/ADR-RES = test system: NCI/ADR-RES
OVCAR-4 = test system: OVCAR-4
OVCAR-8 = test system: OVCAR-8
RPMI-8226 = test system: RPMI-8226
SF-268 = test system: SF-268
SF-295 = test system: SF-295
SF-539 = test system: SF-539
SK-MEL-28 = test system: SK-MEL-28
SNB-19 = test system: SNB-19
SNB-75 = test system: SNB-75
SR = test system: SR
SW-620 = test system: SW-620
TK-10 = test system: TK-10
U-251 = test system: U-251
UACC-62 = test system: UACC-62

Clc1ccc(-c2cc(-c3cc(-c4ccc(Cl)cc4)[nH]n3)[nH]n2)cc1
GI50 (A498): > 100 µM (inactive) | GI50 (ACHN): > 100 µM (inactive) | GI50 (BT-549): > 100 µM (inactive) | GI50 (COLO 205): > 100 µM (inactive) | GI50 (DU-145): > 100 µM (inactive) | GI50 (EKVX): > 100 µM (inactive) | GI50 (HCT-116): > 100 µM (inactive) | GI50 (IGROV-1): > 100 µM (inactive) | GI50 (K562): > 100 µM (inactive) | GI50 (M14): > 100 µM (inactive) | GI50 (MDA-MB-435): > 100 µM (inactive) | GI50 (MDA-N): > 100 µM (inactive) | GI50 (MOLT-4): > 100 µM (inactive) | GI50 (Malme-3M): > 100 µM (inactive) | GI50 (NCI-H226): > 100 µM (inactive) | GI50 (NCI-H23): > 100 µM (inactive) | GI50 (NCI-H522): > 100 µM (inactive) | GI50 (OVCAR-3): > 100 µM (inactive) | GI50 (OVCAR-5): > 100 µM (inactive) | GI50 (PC-3): > 100 µM (inactive) | GI50 (RXF 393): > 100 µM (inactive) | GI50 (SK-MEL-2): > 100 µM (inactive) | GI50 (SK-MEL-5): > 100 µM (inactive) | GI50 (SK-OV-3): > 100 µM (inactive) | GI50 (T47D): > 100 µM (inactive) | GI50 (UACC-257): > 100 µM (inactive) | GI50 (UO-31): > 100 µM (inactive)

CC(C)=Nn1cnc(C(=N)C#N)c1N
GI50 (786-0): > 100 µM (inactive) | GI50 (A549): > 100 µM (inactive) | GI50 (ACHN): > 100 µM (inactive) | GI50 (BT-549): > 100 µM (inactive) | GI50 (CAKI-1): > 100 µM (inactive) | GI50 (CCRF-CEM): > 100 µM (inactive) | GI50 (COLO 205): > 100 µM (inactive) | GI50 (DU-145): > 100 µM (inactive) | GI50 (EKVX): > 100 µM (inactive) | GI50 (HCC 2998): > 100 µM (inactive) | GI50 (HCT-116): > 100 µM (inactive) | GI50 (HCT-15): > 100 µM | GI50 (HL-60): > 100 µM (inactive) | GI50 (HOP-62): > 100 µM (inactive) | GI50 (HT-29): > 100 µM (inactive) | GI50 (IGROV-1): > 100 µM (inactive) | GI50 (K562): > 100 µM (inactive) | GI50 (M14): > 100 µM (inactive) | GI50 (MCF7): > 100 µM (inactive) | GI50 (MDA-N): > 100 µM (inactive) | GI50 (MOLT-4): > 100 µM (inactive) | GI50 (Malme-3M): > 100 µM (inactive) | GI50 (NCI-H226): > 100 µM (inactive) | GI50 (NCI-H23): > 100 µM (inactive) | GI50 (NCI-H460): > 100 µM (inactive) | GI50 (NCI-H522): > 100 µM (inactive) | GI50 (NCI/ADR-RES): > 100 µM (inactive) | GI50 (OVCAR-3): > 100 µM (inactive) | GI50 (OVCAR-4): > 100 µM (inactive) | GI50 (OVCAR-5): > 100 µM (inactive) | GI50 (OVCAR-8): > 100 µM (inactive) | GI50 (PC-3): > 100 µM (inactive) | GI50 (RPMI-8226): > 100 µM (inactive) | GI50 (RXF 393): > 100 µM (inactive) | GI50 (SF-268): > 100 µM (inactive) | GI50 (SF-295): 29.4 µM (inactive) | GI50 (SF-539): > 100 µM (inactive) | GI50 (SK-MEL-28): > 100 µM (inactive) | GI50 (SK-MEL-2): > 100 µM (inactive) | GI50 (SK-MEL-5): > 10 µM (inactive) | GI50 (SK-OV-3): > 100 µM (inactive) | GI50 (SNB-19): > 100 µM (inactive) | GI50 (SNB-75): 37.1 µM (inactive) | GI50 (SR): > 100 µM (inactive) | GI50 (SW-620): > 100 µM (inactive) | GI50 (TK-10): > 100 µM (inactive) | GI50 (U-251): > 100 µM (inactive) | GI50 (UACC-257): > 100 µM (inactive) | GI50 (UACC-62): > 100 µM (inactive) | GI50 (UO-31): > 100 µM (inactive)
